Results taken from patent publication US8354447B2, “mGLU receptors antagonists for treating disorders associated with mGLU receptors including addiction and depression” (The Scripps Research Institute, priority 2002, dated 2013).
Like-named read-outs stand apart in the source and are kept apart here.

Tested on: male Wistar rats
From the text: Animals were trained to respond according to a modification of the discrete-trial current-threshold procedure of Kornetsky and Esposito (Fed Proc 38:2473-2476, 1979), which has been described in detail previously (Markou and Koob, 1992 Physiol Behav 51:111-119). Briefly, a trial was initiated by the delivery of a non-contingent electrical stimulus. […] The current intensity delivered was adjusted for each animal and typically ranged from 50 to 200 μA. […] After a variable inter-trial interval (7.5-12.5 sec, average of 10 sec), another trial was initiated with the delivery of a non-contingent electrical stimulus. […] Responding during the inter-trial interval delayed the onset of the next trial by 12.5 sec. Current levels were varied in alternating descending and ascending series. A set of three trials was presented for each current intensity. Current intensities were altered in 5 μA steps. In each testing session, four alternating descending-ascending series were presented. […] The overall threshold of the session was defined as the mean of the thresholds for the four individual series. Each testing session was ˜30 min in duration. The latency between the onset of the non-contingent stimulus and a positive response was recorded as the response latency. The response latency for each test session was defined as the mean response latency of all trials during which a positive response occurred. After establishment of stable ICSS reward thresholds, rats were tested in the ICSS procedure once daily except for the spontaneous nicotine withdrawal experiment when rats were tested at time-points according to the experimental design.
Systemic administration experiments. These experiments investigated whether nicotine withdrawal, as measured by elevations in ICSS thresholds, could be precipitated in nicotine-treated rats by systemic administration of an agonist at mGluII receptors (LY314582), an agonist at GABAB receptors (CGP44532), or antagonists at mGlu5 (MPEP), NMDA (MK-801) or AMPA/Kainate (NBQX) glutamate receptors. For each drug tested, rats were trained in the ICSS paradigm until stable baseline responding was achieved, defined as ≦10% variation in thresholds for 3 consecutive days and requiring approximately 14 days of daily testing. […] One group was then prepared with subcutaneous osmotic mini-pumps delivering vehicle and the second group with mini-pumps delivering 9 mg/kg/day nicotine hydrogen tartrate (3.16 mg/kg/day nicotine free base). There was a minimum seven-day interval after mini-pump implantation, during which ICSS reward thresholds continued to be measured daily, before the effect of any systemically administered drug on reward thresholds was evaluated.

[1] = MPEP 0.01 mg/kg i.p., Nicotine-treated rats
[2] = MPEP 0.01 mg/kg i.p., Vehicle-treated rats
[3] = MPEP 0.05 mg/kg i.p., Nicotine-treated rats
[4] = MPEP 0.05 mg/kg i.p., Vehicle-treated rats
[5] = MPEP 0.1 mg/kg i.p., Nicotine-treated rats
[6] = MPEP 0.1 mg/kg i.p., Vehicle-treated rats
[7] = MPEP 0.5 mg/kg i.p., Nicotine-treated rats
[8] = MPEP 0.5 mg/kg i.p., Vehicle-treated rats
[9] = MPEP 1 mg/kg i.p., Nicotine-treated rats
[10] = MPEP 1 mg/kg i.p., Vehicle-treated rats
[11] = MPEP 2 mg/kg i.p., Nicotine-treated rats
[12] = MPEP 2 mg/kg i.p., Vehicle-treated rats
[13] = MPEP 3 mg/kg i.p., Nicotine-treated rats
[14] = MPEP 3 mg/kg i.p., Vehicle-treated rats

## Cc1cccc(C#Cc2ccccc2)n1 [MPEP, 2-methyl-6-(phenylethynyl)-pyridine]
[1]
  ICSS Thresholds: 93.86 ± 6.0 percentage of baseline
  ICSS response Latencies: 101.50 percentage of baseline
[2]
  ICSS Thresholds: 98.75 ± 3.5 percentage of baseline
  ICSS response Latencies: 99.75 ± 3.4 percentage of baseline
[3]
  ICSS Thresholds: 94.11 ± 2.6 percentage of baseline
  ICSS response Latencies: 103.48 percentage of baseline
[4]
  ICSS Thresholds: 101.27 ± 4.1 percentage of baseline
  ICSS response Latencies: 104.87 ± 3.3 percentage of baseline
[5]
  ICSS Thresholds: 103.84 ± 1.2 percentage of baseline
  ICSS response Latencies: 102.54 percentage of baseline
[6]
  ICSS Thresholds: 105.13 ± 3.2 percentage of baseline
  ICSS response Latencies: 105.13 ± 4.8 percentage of baseline
[7]
  ICSS Thresholds: 104.02 ± 2.2 percentage of baseline
  ICSS response Latencies: 99.47 percentage of baseline
[8]
  ICSS Thresholds: 103.01 ± 2.7 percentage of baseline
  ICSS response Latencies: 103.20 ± 4.4 percentage of baseline
[9]
  ICSS Thresholds: 105.81 ± 3.3 percentage of baseline
  ICSS response Latencies: 99.12 percentage of baseline
[10]
  ICSS Thresholds: 103.70 ± 3.0 percentage of baseline
  ICSS response Latencies: 100.72 ± 2.1 percentage of baseline
[11]
  ICSS Thresholds: 121.17 ± 6.2 percentage of baseline
  ICSS response Latencies: 101.31 percentage of baseline
[12]
  ICSS Thresholds: 111.21 ± 2.3 percentage of baseline
  ICSS response Latencies: 107.60 ± 2.6 percentage of baseline
[13]
  ICSS Thresholds: 119.11 ± 5.5 percentage of baseline
  ICSS response Latencies: 102.22 percentage of baseline
[14]
  ICSS Thresholds: 111.52 ± 4.8 percentage of baseline
  ICSS response Latencies: 103.58 ± 2.3 percentage of baseline
MPEP 0.01-0.1 mg/kg, nicotine-treated or control rats
  ICSS reward thresholds: did not affect reward thresholds
MPEP 0.5-3 mg/kg
  ICSS reward thresholds: elevated reward thresholds in nicotine-treated and control rats
MPEP 0.5-3 mg/kg, either group
  ICSS response Latencies: had no effect on response latencies
